Reference: ChEMBL document CHEMBL1148797, “Structure-activity relationships in the binding of chemically derivatized CD4 to gp120 from human immunodeficiency virus” (J Med Chem, 2007)

Assay: Inhibition of wild type HIV YU2 gp120 to CD4 binding
Parameters: species or system Human immunodeficiency virus

Row | IC50 [µM] | SMILES
1 | 3.58 | O=C(O)c1cc(SSc2ccc([N+](=O)[O-])c(C(=O)O)c2)ccc1[N+](=O)[O-]
2 | 3.22 | CCN1C(=O)C=CC1=O [N-ETHYLMALEIMIDE]
